Laboratory results: patent publication US20220048869A1, “PHENAZINE-BASED COMPOUND, ELECTROLYTIC LIQUID COMPRISING SAME FOR REDOX FLOW BATTERY, AND REDOX FLOW BATTERY” (LOTTE CHEMICAL CORPORATION, priority 2018, published 2022)
In brackets after ≈: the same amount, converted by molar mass.

Assay: Solubility (maximum soluble amount) in acetonitrile solution including 0.1 M TBAPF6
Format: physicochemical
Settings: for solubility: acetonitrile solution including 0.1 M TBAPF6, organic solvent or mixture, maximum soluble amount in acetonitrile solution including TBAPF6 at 0.1 M
Procedure: Each of the phenazine-based compounds provided according to Example 1 and Comparative Example 1 was dissolved in an acetonitrile solution including TBAPF6 at a concentration of 0.1 M, and the maximum soluble amounts of the phenazine-based compounds were identified, and the results are shown in the following Table 1.

| SMILES | solubility [mM] | fold higher solubility in a non-aqueous solvent than DMPZ (non-aqueous solvent, relative to DMPZ) |
| --- | --- | --- |
| CN1c2ccccc2N(C)c2ccccc21 [Comparative Example 1, 5,10-dimethyl-5,10-dihydrophenazine, reference compound] | 50 (≈ 10.5 mg/mL) |  |
| COCCN1c2ccccc2N(CCOC)c2ccccc21 [Example 1, 5,10-bis(2-methoxyethyl)-5,10-dihydrophenazine] | 500 (≈ 149 mg/mL) | at least 10 fold |
